Measurements published in patent EP4644383A1 (Jiangsu Yahong Meditech Co., Ltd., priority 2022, dated 2024).
Read-outs that look alike come from different tables or passages of the source.

Legend:
Type in all cases: biochemical
[1] = target: T1, FGFR1 (Homo sapiens, UniProt P11362); experiment: FGFR1 kinase activity inhibition assay (LanthaScreen TR-FRET)
T1 construct: cytoplasmic domain [398-822 (terminal) amino acids]; purchased Carna 08-133
Method in brief: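 Emission ratio 520 nm/495 nm by TR-FRET after stopping reaction with 10 mM EDTA and 60 min incubation at 22°C. Inhibition normalized between no-enzyme (min) and DMSO (max) controls, then fitted to a four-parameter curve (Top, Bottom, HillSlope).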

[2] = target: T2, FGFR3 (Homo sapiens, UniProt P22607); experiment: FGFR3 kinase activity inhibition assay (LanthaScreen TR-FRET); details: for Selectivity (X) FGFR1/FGFR3: ratio of IC50 FGFR1/FGFR3, selectivity towards FGFR3; for Selectivity (X) FGFR2/FGFR3: ratio of IC50 FGFR2/FGFR3, selectivity towards FGFR3; for Selectivity (X) FGFR4/FGFR3: ratio of IC50 FGFR4/FGFR3, selectivity towards FGFR3
T2 construct: FGFR3's cytoplasmic domain [436-806 (terminal) amino acids]; purchased Carna 08-135
T2 sequence (P22607 436-806): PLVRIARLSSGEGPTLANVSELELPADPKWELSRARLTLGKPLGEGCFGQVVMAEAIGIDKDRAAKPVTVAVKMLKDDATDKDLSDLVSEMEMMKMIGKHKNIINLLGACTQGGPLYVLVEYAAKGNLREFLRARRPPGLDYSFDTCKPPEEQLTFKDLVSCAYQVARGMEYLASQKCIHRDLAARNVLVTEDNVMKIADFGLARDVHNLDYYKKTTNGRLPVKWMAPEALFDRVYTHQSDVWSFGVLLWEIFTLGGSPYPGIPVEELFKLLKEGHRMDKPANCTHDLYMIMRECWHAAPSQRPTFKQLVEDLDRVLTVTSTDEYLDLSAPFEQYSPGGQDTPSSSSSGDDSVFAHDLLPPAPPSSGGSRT
Method in brief: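 Read-out is TR-FRET, with the 520 nm/495 nm emission ratio normalised to DMSO (max) and enzyme-free (min) controls. Enzyme was the FGFR3 cytoplasmic domain, residues 436-806. EDTA (10 mM) stopped the reaction, followed by 60 min at 22 °C before reading.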

[3] = target: T3, FGFR2 (Homo sapiens, UniProt P21802); experiment: FGFR2 kinase activity inhibition assay (LanthaScreen TR-FRET)
T3 construct: FGFR2's cytoplasmic domain [399-821 (terminal) amino acids]; purchased Carna 08-134
T3 sequence (P21802 399-821): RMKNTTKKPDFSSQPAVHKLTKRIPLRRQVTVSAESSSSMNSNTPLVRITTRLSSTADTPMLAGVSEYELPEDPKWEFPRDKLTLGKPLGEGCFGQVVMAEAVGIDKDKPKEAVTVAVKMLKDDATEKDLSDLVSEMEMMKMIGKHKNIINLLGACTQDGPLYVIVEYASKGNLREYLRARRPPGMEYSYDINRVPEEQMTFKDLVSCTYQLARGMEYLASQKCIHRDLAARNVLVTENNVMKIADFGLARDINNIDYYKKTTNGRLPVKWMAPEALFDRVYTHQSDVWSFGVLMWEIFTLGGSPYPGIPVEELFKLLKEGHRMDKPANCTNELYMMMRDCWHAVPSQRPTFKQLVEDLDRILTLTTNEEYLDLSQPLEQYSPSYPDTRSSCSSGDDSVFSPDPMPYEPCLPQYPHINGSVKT
Method in brief: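 GST-fused FGFR2 cytoplasmic domain (aa 399-821) was run as in the FGFR1 protocol: preincubated 10 min at 23 °C with compound (3-fold series from 1 µM) in 50 mM HEPES pH 7.5, 10 mM MgCl2, 4 mM DTT, 1% DMSO. A 2× mix of 28 nM fluorescein-poly GT/28 µM ATP then reacted 30 min. Tb-PY20/EDTA quench preceded the TR-FRET 520/495 read.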

[4] = target: T4, FGFR4 (Homo sapiens, UniProt P22455); experiment: FGFR4 kinase activity inhibition assay (LanthaScreen TR-FRET)
T4 construct: FGFR4's cytoplasmic domain [460-802 (terminal) amino acids]; purchased Carna 08-136
T4 sequence (P22455 460-802): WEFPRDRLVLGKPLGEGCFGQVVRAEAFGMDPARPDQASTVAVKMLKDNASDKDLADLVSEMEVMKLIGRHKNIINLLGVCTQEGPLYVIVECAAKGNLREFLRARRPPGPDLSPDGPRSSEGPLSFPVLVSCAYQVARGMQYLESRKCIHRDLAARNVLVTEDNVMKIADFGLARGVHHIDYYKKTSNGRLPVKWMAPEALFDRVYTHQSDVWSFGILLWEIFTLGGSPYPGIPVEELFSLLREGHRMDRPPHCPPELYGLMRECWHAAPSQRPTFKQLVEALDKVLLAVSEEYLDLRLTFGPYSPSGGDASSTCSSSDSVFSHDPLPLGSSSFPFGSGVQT
Method in brief: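 GST-tagged cytoplasmic domains (FGFR2 aa 399-821; FGFR4 aa 460-802) were preincubated 10 min at 23 °C with compound (top 1 µM, threefold dilutions). Then 28 nM fluorescein-poly GT and 28 µM ATP were added for 30 min at 23 °C in HEPES pH 7.5 buffer. Tb-PY20 TR-FRET 520/495 ratio gave % inhibition versus DMSO and no-enzyme controls.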

[5] = FGFR1 kinase, TR-FRET, read-out: IC50 (nM) FGFR1
[6] = FGFR3 kinase, TR-FRET, read-out: IC50 (nM) FGFR3
[7] = FGFR2 kinase, TR-FRET, read-out: IC50 (nM) FGFR2
[8] = FGFR4 kinase, TR-FRET, read-out: IC50 (nM) FGFR4

T1 sequence (P11362 398-822): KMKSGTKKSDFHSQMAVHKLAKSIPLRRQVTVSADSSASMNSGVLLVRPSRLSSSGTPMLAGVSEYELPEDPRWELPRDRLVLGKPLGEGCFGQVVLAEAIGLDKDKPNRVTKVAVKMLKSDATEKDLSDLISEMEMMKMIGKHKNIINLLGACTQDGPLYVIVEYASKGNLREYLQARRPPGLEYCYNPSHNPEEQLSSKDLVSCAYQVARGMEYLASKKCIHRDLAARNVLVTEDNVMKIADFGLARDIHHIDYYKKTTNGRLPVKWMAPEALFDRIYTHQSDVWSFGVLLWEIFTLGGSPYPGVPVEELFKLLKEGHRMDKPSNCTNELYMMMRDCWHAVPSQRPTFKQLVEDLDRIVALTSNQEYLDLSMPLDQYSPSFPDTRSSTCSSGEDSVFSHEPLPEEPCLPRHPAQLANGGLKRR

| SMILES | Selectivity (X) FGFR1/FGFR3 [2] | Selectivity (X) FGFR2/FGFR3 [2] | Selectivity (X) FGFR4/FGFR3 [2] | IC50 [1, 5] [nM] | IC50 [2, 6] [nM] | IC50 [3, 7] [nM] | IC50 [4, 8] [nM] | IC50 [1] [nM] | IC50 [2] [nM] | IC50 [3] [nM] | IC50 [4] [nM] |
| --- | --- | --- | --- | --- | --- | --- | --- | --- | --- | --- | --- |
| CC(Oc1ccc2[nH]nc(-c3cnn(C)c3)c2c1)c1c(CO)ccc2ncccc12 (centres unmarked) [Example 156, (5-(1-((3-(1-methyl-1H-pyrazol-4-yl)-1H-indazol-5-yl)oxy)ethyl)quinolin-6-yl)m ethano] | B (B represents 20 ≤ multiple X<50) | A (A represents 1 ≤ multiple X<20) | A (A represents 1 ≤ multiple X<20) |  |  |  |  | 10 to 100 | 1 to 10 | 1 to 10 | 10 to 100 |
| CC(Oc1ccc2[nH]nc(-c3cnn(C4CN(C)C4)c3)c2c1)c1cccc2nccnc12 (centres unmarked) [Example 158, 5-(1-((3-(1-(1-methylazetidin-3-yl)-1H-pyrazol-4-yl)-1H-indazol-5-yl)oxy)ethyl)q uinoxaline] | B (B represents 20 ≤ multiple X<50) | A (A represents 1 ≤ multiple X<20) | C (C represents 50 ≤ multiple X<100) | 10 to 100 | 1 to 10 | 1 to 10 | 10 to 100 |  |  |  |  |
| CC(Oc1ccc2[nH]nc(-c3cnn(C4CC(N(C)C)C4)c3)c2c1)c1cccc2nccnc12 (centres unmarked) [Example 170, N,N-dimethyl-3-(4-(5-(1-(quinoxalin-5-yl)ethoxy)-1H-indazol-3-yl)-1H-pyrazol-1-yl)cyclobutan-1-amine] | A (A represents 1 ≤ multiple X<20) | A (A represents 1 ≤ multiple X<20) | C (C represents 50 ≤ multiple X<100) | 1 to 10 | < 1 | 1 to 10 | 10 to 100 |  |  |  |  |
| Cc1cc(C(C)Oc2ccc3[nH]nc(-c4cnn(C)c4)c3c2)c2ccnn2c1 (centres unmarked) [Example 171, 3-(1-methyl-1H-pyrazol-4-yl)-5-(1-(6-methylpyrazolo [1,5-a]pyridin-4-yl)ethoxy)-1H-indazole] | B (B represents 20 ≤ multiple X<50) | A (A represents 1 ≤ multiple X<20) | B (B represents 20 ≤ multiple X<50) | 10 to 100 | < 1 | 1 to 10 | 10 to 100 |  |  |  |  |
| CC(Oc1ccc2[nH]nc(-c3cnn(CCCS(C)(=N)=O)c3)c2c1)c1cc(Cl)cc2nccnc12 (centres unmarked) [Example 173, (3-(4-(5-(1-(7-chloroquinoxalin-5-yl)ethoxy)-1H-indazol-3-yl)-1H-pyrazol-1-yl)propyl)(imino)(methyl)-sulfanone] | A (A represents 1 ≤ multiple X<20) | A (A represents 1 ≤ multiple X<20) | B (B represents 20 ≤ multiple X<50) | 1 to 10 | < 1 | 1 to 10 | 10 to 100 |  |  |  |  |
| CC(Oc1ccc2[nH]nc(-c3cnn(C)c3)c2c1)c1cc(Cl)cn2nccc12 (centres unmarked) [Example 174, 5-(1-(6-chloropyrazolo[1,5-a]pyridin-4-yl)ethoxy)-3-(1-methyl-1H-pyrazol-4-yl)-1H-indazole] | B (B represents 20 ≤ multiple X<50) | B (B represents 20 ≤ multiple X<50) | D (D represents 100 ≤ multiple X) | 10 to 100 | < 1 | 1 to 10 | 10 to 100 |  |  |  |  |
| CC(Oc1ccc2[nH]nc(-c3cnn(C4CN(C(=O)CO)C4)c3)c2c1)c1cc(Cl)cc2ncccc12 (centres unmarked) [Example 189, 1-(3-(4-(5-(1-(7-chloroquinolin-5-yl)ethoxy)-1H-indazol-3-yl)-1H-pyrazol-1-yl)azetidin-1-yl)-2-hydroxyethan-1-one] | D (D represents 100 ≤ multiple X) | B (B represents 20 ≤ multiple X<50) | C (C represents 50 ≤ multiple X<100) | > 100 | < 1 | 10 to 100 | 10 to 100 |  |  |  |  |
| CC(Oc1ccc2[nH]nc(-c3cnn(C4CN(S(=O)(=O)N(C)C)C4)c3)c2c1)c1cccc2nccnc12 (centres unmarked) [Example 194, N,N-dimethyl-3-(4-(5-(1-(quinoxalin-5-yl)ethoxy)-1H-indazol-3-yl)-1H-pyrazol-1-yl)azetidine-1-sulfonamide] | B (B represents 20 ≤ multiple X<50) | A (A represents 1 ≤ multiple X<20) | C (C represents 50 ≤ multiple X<100) | 10 to 100 | < 1 | 1 to 10 | 10 to 100 |  |  |  |  |
| CC(Oc1ccc2[nH]nc(-c3cnn(C4CN(S(C)(=O)=O)C4)c3)c2c1)c1cccc2nccnc12 (centres unmarked) [Example 195] | B (B represents 20 ≤ multiple X<50) | A (A represents 1 ≤ multiple X<20) | B (B represents 20 ≤ multiple X<50) | 10 to 100 | < 1 | 1 to 10 | 10 to 100 |  |  |  |  |
| CC(Oc1ccc2[nH]nc(-c3cnn(C)c3)c2n1)c1c(C(F)F)ccc2ncccc12 (centres unmarked) [Example 203] | B (B represents 20 ≤ multiple X<50) | B (B represents 20 ≤ multiple X<50) | C (C represents 50 ≤ multiple X<100) | 10 to 100 | < 1 | 10 to 100 | 10 to 100 |  |  |  |  |

The next lines start with results.

| Selectivity (X) FGFR1/FGFR3 [2] | Selectivity (X) FGFR2/FGFR3 [2] | Selectivity (X) FGFR4/FGFR3 [2] | IC50 [1, 5] [nM] | IC50 [2, 6] [nM] | IC50 [3, 7] [nM] | IC50 [4, 8] [nM] | SMILES | IC50 [1] [nM] | IC50 [2] [nM] | IC50 [3] [nM] | IC50 [4] [nM] |
| --- | --- | --- | --- | --- | --- | --- | --- | --- | --- | --- | --- |
| A (A represents 1 ≤ multiple X<20) | A (A represents 1 ≤ multiple X<20) | A (A represents 1 ≤ multiple X<20) | 10 to 100 | 1 to 10 | 1 to 10 | 10 to 100 | CC(Oc1ccc2[nH]nc(-c3cnn(C)c3)c2c1)c1nccc2nccnc12 (centres unmarked) [Example 157, 5-(1-((3-(1-methyl-1H-pyrazol-4-yl)-1H-indazol-5-yl)oxy)ethyl)py ridino[3,4-b]pyrazine] |  |  |  |  |
| B (B represents 20 ≤ multiple X<50) | A (A represents 1 ≤ multiple X<20) | B (B represents 20 ≤ multiple X<50) | 10 to 100 | 1 to 10 | 10 to 100 | 10 to 100 | Cc1c(F)cc2ncccc2c1C(C)Oc1ccc2[nH]nc(-c3cnn(C)c3)c2c1 (centres unmarked) [Example 161, 7-fluoro-6-methyl-5-(1-((3-(1-methyl-1H-pyrazol-4-yl)-1H-indazol-5-yl)oxy)ethyl)quinoline] |  |  |  |  |
| B (B represents 20 ≤ multiple X<50) | A (A represents 1 ≤ multiple X<20) | B (B represents 20 ≤ multiple X<50) | 10 to 100 | 1 to 10 | 10 to 100 | 10 to 100 | [2H]C([2H])([2H])c1ccc2ncccc2c1C(C)Oc1ccc2[nH]nc(-c3cnn(C)c3)c2c1 (centres unmarked) [Example 187, 6-(methyl-d3) - 5-(1-((3-(1-methyl-1H-pyrazol-4-yl)-1H-indazol-5-yl)oxy)ethyl)qu inoline] |  |  |  |  |
| C (C represents 50 ≤ multiple X<100) | A (A represents 1 ≤ multiple X<20) | C (C represents 50 ≤ multiple X<100) | 10 to 100 | < 1 | 1 to 10 | 10 to 100 | Cc1cn2nccc2c(C(C)Oc2ccc3[nH]nc(-c4cnn(C)c4)c3c2)n1 (centres unmarked) [Example 191, 6-methyl-4-(1-((3-(1-methyl-1H-pyrazol-4-yl)-1H-indazol-5-yl)oxy)ethyl)py razolo[1,5-a]pyrazine] |  |  |  |  |
